# Assay results: patent US20230026969A1, “Oligopeptide, Testing Kit Thereof And Medical Composition Thereof” (China Medical University, priority 2019, published 2023)
# Columns and labels:
# hPi-GL = assay: Immunocytofluorescent staining of phage clones on hPi-GL chondrocyte cell line; type: cell-based, human; conditions: phage clones on fixed hPi-GL cells
# Description: For examination of those phage clones, slide-cultured hPi-GL cells were fixed with 4% paraformaldehyde in PBS at room temperature for 15 mins, washed with PBS and permeabilized with 0.1% Triton X-100 at room temperature for 30 mins, blocked for nonspecific binding with 1% BSA/PBST. The slide-cultured hPi-GL cells were separately incubated with 4×10^8 pfu, 8×10^8 pfu, and […] selected phage clones at 4° C. for 1 hour. After removing the unbound phages by washing, the cells were incubated with anti-M13 mouse mAb (GE Healthcare, Milwaukee, Wis., USA) as the primary antibody and R-Phycoerythrin-AffiniPure F(ab′)2 fragment goat anti-mouse IgG (Jackson ImmunoResearch Inc.) as the secondary antibody at room temperature for 1 hour, respectively. Then, washed with PBST, and counterstained with Hoechst 33258 (1 μg/ml; Sigma-Aldrich) at room temperature for 10 mins. The cells were analyzed for phage binding and localization by fluorescence using confocal microscopy (Zeiss LSM 700).
# OA cartilage [1] = assay: Immunostaining of human OA tissue sections with phage clones: cartilage; type: binding; conditions: for binding activity to cartilage (DAB intensity): HRP-labeled phage clones
# Source text: (§1) To examine localization of the targeting phages bound to articular tissues, human OA cartilage specimens were used for examination. Paraffin-embedded human OA tissue, synovium, and meniscus sections were retrieved from specimens of human OA surgical treatment under the approval of the Institutional Review Board of China Medical University Hospital (IRB no. CMUH108-REC1-046 and T-CMU-23728). Written informed consent was obtained, and all human tissue samples were coded for anonymity. All sections were dried, deparaffinized and rehydrated by standard protocols, and subsequently incubated with C5-87, C5-66, C5-83, C5-91, C5-24, E5-8, and C5-46 phage clones, or the control phage (5×10^8 pfu/μl). After washing, the sections were treated with anti-M13 mouse mAb (GE Healthcare) for 1 hour at room temperature. Following several washing steps, a biotin-free super sensitive polymer-HRP detection system (Biogenex, Fremont, Calif., USA) was used to detect immunoreactivity. The slides were lightly counterstained with hematoxylin, mounted with Aquatex (Merck, Darmstadt, Germany), and examined by light microscopy.
# meniscus = assay: Immunostaining of human OA tissue sections with phage clones: meniscus; type: binding; conditions: HRP-labeled phage clones
# Source text: as §1
# synovium = assay: Immunostaining of human OA tissue sections with phage clones: synovium; type: binding; conditions: HRP-labeled phage clones
# Source text: as §1
# OA cartilage [2] = assay: Intravital two-photon imaging of rhodamine-labeled peptides injected into rat joints; type: in vivo; conditions: for rhodamine fluorescence (red dots) in cartilage: intra-articular, two-photon microscopy
# Description: The OA in rat model was established as previous described with slightly modification. In brief, the male SD rats≅300 grams in weight were used in this study. All animal experiments were approved by the China Medical University Committee for the Use and Care of Animals. Rats were kept under standard laboratory conditions (temperature 24° C., 12 h light-dark cycle), fed standard diet and drank tap water. Rats were anesthetized with 2.5% isofluorane (Abott, USA) in 70 ml/min flow rate before every injection. Rat joint OA was induced in the right knees in each group by injecting 0.2 ml of 4% papain solution (Sigma-Aldrich, USA) with 0.1 ml of 0.03 M cysteine (Sigma-Aldrich, USA) as activator. Same amount of saline was injected into the left knees in each group. Injection was repeated on the fourth and seventh days, respectively, and two weeks after the last papain injection, rat knees were removed for histological analysis to confirm the formation of OA. The established OA model in rats was further used in the following experiments for intraarticular injection.
# The rhodamine-labeled C5-24 and scrambled peptides were separately injected into rat joints without (control) or with enzyme-induced OA. The C5-24 and scrambled peptides were chemically synthesized as accordingly (ABI, USA), modified with Biotin-PEG2-Iodoacetyl bridge linker (Thermo Fisher Scientific, USA) in HEPES buffer pH 8.0 through click reaction, further linked with avidin labeled rhodamine (Jacksonlmmuno, USA) and subjected to dialysis in ddH2O in M.W. 4K cut-off to remove the unlabeled rhodamine, further lyophilized and stored in −20° C. Aliquots of 1 μg rhodamine-labeled peptides in 40 μl PBS were used for intraarticular injection with using 30 G syringes.
# Rat Knees were removed at 1-day post-injection, and both femoral condyles and tibias were cleaned thoroughly, immersed in PBS and sophisticatedly attached on 3.5 cm dish for 2-photon microscopic observation. The microscope system was operated using a near-infrared femtosecond laser (Mira 900, Coherent, USA) at the central wavelength of 810 nm, 76 MHz pulse repetition rate, and 200 fs pulse width for imaging. […] Thus, the wavelength of SHG from collagen fibers is 405 nm, while the TPEF from collagen, elastin, FAD, and NADH is approximately ranging from 450 to 650 nm. All images were obtained by a laser scanning unit (Fluoview 300, Olympus, Japan), a pair of two objective lenses for both lasers focusing and collection of photons (UPlanSApo 20×/0.75, Olympus, Japan), and two photomultiplier tubes respectively for SHG and TPEF detection (R3896, Hamamatsu, Japan). SHG and TPEF were filtered from the intense excitation laser background by a combination of band-pass filter (FF01-405/10, Semrock, USA) and color glass (BG39, Schott, Germany). And, then splitted by a dichroic mirror (FF435-Di01, Semrock, USA) and forward detected. […] Only the extinction ratio of linear polarization larger than 50:1 and the ellipticity of circular polarization (Imax/Imin) less than 1.1 after the focusing objective lens can then be used for the following two-photon imaging. The acquired images were mainly processed and analyzed with ImageJ/FiJi software (National Institutes of Health, Bethesda, Md., USA).
# [3] = rhodamine-labeled peptide, OA cartilage
# [4] = rhodamine-labeled peptide, control cartilage
substance,measurement,setting,value
"D A Y W H P V W V H D P (DAYWHPVWVHDP; binding to collagen XII; DOMAIN (4)..(8)) [C5-91, 2, from phage display]","binding to hPi-GL (immunocytofluorescent staining, M13-PE)",hPi-GL,specific and remarkable binding
same,binding activity to cartilage (DAB intensity),OA cartilage [1],superior binding activity
same,binding activity to the meniscus (DAB intensity),meniscus,no binding activity
same,binding activity to the synovium (DAB intensity),synovium,no binding activity
"D L Q Y W Y P I W D T H (DLQYWYPIWDTH; binding to collagen XII; DOMAIN (5)..(9); DOMAIN (10)..(12)) [C5-24, 1, from phage display]","binding to hPi-GL (immunocytofluorescent staining, M13-PE)",hPi-GL,specific and remarkable binding
same,specificity for targeting the territorial region of OA cartilage,OA cartilage [1],best specificity
same,binding activity to cartilage (DAB intensity),OA cartilage [1],superior binding activity
same,binding activity to the meniscus (DAB intensity),meniscus,no binding activity
same,binding activity to the synovium (DAB intensity),synovium,no binding activity
same,"overall fluorescent peptides binding area, OA vs control cartilage","OA cartilage [2]; all slices, FIG. 1b",significant difference
same,depth reached in the OA cartilage (z-axial plane),OA cartilage [2]; [3],at least 50 μm
same,rhodamine fluorescence (red dots) in cartilage,OA cartilage [2]; [3],red dots were observed
same,rhodamine fluorescence (red dots) in cartilage,OA cartilage [2]; [4],sparse red dots
"DYLWQYPDITWH [scrambled peptide, contains all the same amino acids as the original peptide but in new random order, reference compound]",rhodamine fluorescence (red dots) in cartilage,OA cartilage [2]; [3],sparse red dots
same,rhodamine fluorescence (red dots) in cartilage,OA cartilage [2]; [4],sparse red dots
same,ability to bind to OA cartilage,OA cartilage [2]; scrambled control peptide,not able to bind to OA cartilage
